Experimental data as given in patent US11999716B2, “WDR5 inhibitors and modulators” (priority 2018, dated 2024).
Where two headings read alike, the source gives them in different places.

System: MV4:11 human cancer cell lines
Test: Cellular viability / anti-proliferative activity, CellTiter-Glo, 5 day protocol
Assay type: cell-based
Conditions: Homo sapiens, MV4-11, 120 h, read-out: GI50 on cellular proliferation of MV4:11 human cancer cell lines
Procedure: Cellular Viability of Human Tumor Cell Lines
Anti proliferative activity using MLL-harboring cell lines. […] Viability assays are performed by dispensing 200 cells at 7200 cells/mL into each well of an opaque 384-well plate and adding compounds at the indicated concentrations in a final volume of 32 μL and a final concentration of DMSO of 0.3% for all samples. A certain range of compound concentrations is made through a series of 2-fold dilutions starting 30 μM at the highest, total 22 dilutions. After a set incubation period, 5 day protocol, the viability of cells in each well is assessed using the CellTiter-Glo assay (Promega), read on a 96 Microplane Luminometer (Cytation 3, BioTek). Serial dilutions of each cell type are performed in all assays to generate standard curves and the final densities of cells are determined within the dynamic range of the instrument. GI50 values are calculated based on XLfit software (IDBS, Guildford, UK) with Sigmoidal Dose-Response Model. Each compound is tested in minimum of two replicates. Data are expressed as mean.

[1] = MV4:11 cells, 5 day incubation, CellTiter-Glo, mean of minimum two replicates

| SMILES | GI50 [1] [µM] | GI50 [µM] |
| --- | --- | --- |
| Cc1ccnc([C@H](C2CC2)N2CCc3c(cc(Cn4ccn(C)c4=N)cc3-c3ccc(F)cc3C)C2=O)c1 [Example 37, (S)-2-(Cyclopropyl(4-methylpyridin-2-yl)methyl)-5-(4-fluoro-2-methylphenyl)-7-((2-imino-3-methyl-2,3-dihydro-1H-imidazol-1-yl)methyl)-3,4-dihydroisoquinolin-1(2H)-one] | < 0.05 | – |
| COc1cc(CN2CCc3c(cc(CN4CCOC4=N)cc3-c3cccnc3C(F)(F)F)C2=O)cc(OC)c1 [Example 82, 2-(3,5-Dimethoxybenzyl)-7-((2-iminooxazolidin-3-yl)methyl)-5-(2-(trifluoromethyl)pyridin-3-yl)-3,4-dihydroisoquinolin-1(2H)-one] | 0.055 | – |
| Cc1ccnc([C@H](C2CC2)N2CCc3c(cc(Cn4ccn(C)c4=N)cc3-c3cccnc3C(F)(F)F)C2=O)c1 [Example 36, (S)-2-(Cyclopropyl(4-methylpyridin-2-yl)methyl)-7-((2-imino-3-methyl-2,3-dihydro-1H-imidazol-1-yl)methyl)-5-(2-(trifluoromethyl)pyridin-3-yl)-3,4-dihydroisoquinolin-1(2H)-one] | 0.201 | – |
| CCn1cc(-c2cc(Cn3ccn(C)c3=N)cc3c2CCN(Cc2cc(OC)ccn2)C3=O)c(C)n1 [Example 63, 5-(1-Ethyl-3-methyl-1H-pyrazol-4-yl)-7-((2-imino-3-methyl-2,3-dihydro-1H-imidazol-1-yl)methyl)-2-((4-methoxypyridin-2-yl)methyl)-3,4-dihydroisoquinolin-1(2H)-one] | 0.274 | – |
| CCc1ccnc(CN2CCc3c(cc(Cn4cc(C)nc4C)cc3-c3cn(CC)nc3C(F)(F)F)C2=O)c1 [Example 22, 7-((2,4-Dimethyl-1H-imidazol-1-yl)methyl)-5-(1-ethyl-3-(trifluoromethyl)-1H-pyrazol-4-yl)-2-((4-ethylpyridin-2-yl)methyl)-3,4-dihydroisoquinolin-1(2H)-one] | 0.145 | – |
| COc1ccnc(CN2CCc3c(cc(Cn4ccn(C)c4=N)cc3-c3cn(C)nc3C(F)(F)F)C2=O)c1 [Example 41, 7-((2-Imino-3-methyl-2,3-dihydro-1H-imidazol-1-yl)methyl)-2-((4-methoxypyridin-2-yl)methyl)-5-(1-methyl-3-(trifluoromethyl)-1H-pyrazol-4-yl)-3,4-dihydroisoquinolin-1(2H)-one] | 0.064 | – |
| CCn1cc(-c2cc(Cn3ccoc3=N)cc3c2CCN(Cc2cc(C)nn2C)C3=O)c(C(F)(F)F)n1 [Example 94, 2-((1,3-Dimethyl-1H-pyrazol-5-yl)methyl)-5-(1-ethyl-3-(trifluoromethyl)-1H-pyrazol-4-yl)-7-((2-iminooxazol-3(2H)-yl)methyl)-3,4-dihydroisoquinolin-1(2H)-one] | 0.159 | – |
| COc1ccnc(CN2CCc3c(cc(CN4CCN(C)C4=N)cc3-c3cn(C)nc3C(F)(F)F)C2=O)c1 [Example 43, 7-((2-Imino-3-methylimidazolidin-1-yl)methyl)-2-((4-methoxypyridin-2-yl)methyl)-5-(1-methyl-3-(trifluoromethyl)-1H-pyrazol-4-yl)-3,4-dihydroisoquinolin-1(2H)-one] | < 0.05 | – |
| Cc1ccnc(CN2CCc3c(cc(Cn4ccn(C5CC5)c4=N)cc3-c3cn(C)nc3C(F)(F)F)C2=O)c1 [Example 51, 7-((3-Cyclopropyl-2-imino-2,3-dihydro-1H-imidazol-1-yl)methyl)-5-(1-methyl-3-(trifluoromethyl)-1H-pyrazol-4-yl)-2-((4-methylpyridin-2-yl)methyl)-3,4-dihydroisoquinolin-1(2H)-one] | < 0.05 | – |
| CCc1ccnc(CN2CCc3c(cc(Cn4ccnc4C)cc3-c3cn(CC)nc3C(F)(F)F)C2=O)c1 [Example 21, 5-(1-Ethyl-3-(trifluoromethyl)-1H-pyrazol-4-yl)-2-((4-ethylpyridin-2-yl)methyl)-7-((2-methyl-1H-imidazol-1-yl)methyl)-3,4-dihydroisoquinolin-1(2H)-one] | < 0.05 | – |
| Cc1cc(CN2CCc3c(cc(Cn4ccn(C)c4=N)cc3-c3cccnc3C)C2=O)ccc1Cl [Example 27, 2-(4-Chloro-3-methylbenzyl)-7-((2-imino-3-methyl-2,3-dihydro-1H-imidazol-1-yl)methyl)-5-(2-methylpyridin-3-yl)-3,4-dihydroisoquinolin-1(2H)-one] | > 0.938 | – |
| COc1ccnc(CN2CCc3c(cc(Cc4ncc[nH]4)cc3-c3cn(C)nc3C(F)(F)F)C2=O)c1 [Example 132, 7-((1H-Imidazol-2-yl)methyl)-2-((4-methoxypyridin-2-yl)methyl)-5-(1-methyl-3-(trifluoromethyl)-1H-pyrazol-4-yl)-3,4-dihydroisoquinolin-1(2H)-one] | – | < 0.05 |

Second part, led by results:

| GI50 [1] [µM] | SMILES | GI50 [µM] |
| --- | --- | --- |
| 0.252 | Cc1cnc(CN2CCc3c(cc(Cn4ccnc4C)cc3-c3cn(C)nc3C(F)(F)F)C2=O)o1 [Example 194, 7-((2-Methyl-1H-imidazol-1-yl)methyl)-5-(1-methyl-3-(trifluoromethyl)-1H-pyrazol-4-yl)-2-((5-methyloxazol-2-yl)methyl)-3,4-dihydroisoquinolin-1(2H)-one] | – |
| 0.195 | Cc1nccn1Cc1cc2c(c(-c3cn(C)nc3C(F)(F)F)c1)CCN(Cc1cc(Cl)cc3ccccc13)C2=O [Example 225, 2-((3-Chloronaphthalen-1-yl)methyl)-7-((2-methyl-1H-imidazol-1-yl)methyl)-5-(1-methyl-3-(trifluoromethyl)-1H-pyrazol-4-yl)-3,4-dihydroisoquinolin-1(2H)-one] | – |
| 0.591 | CCn1cc(CN2CCc3c(cc(Cn4ccnc4C)cc3-c3cn(C)nc3C(F)(F)F)C2=O)c2ccccc21 [Example 187, 2-((1-Ethyl-1H-indol-3-yl)methyl)-7-((2-methyl-1H-imidazol-1-yl)methyl)-5-(1-methyl-3-(trifluoromethyl)-1H-pyrazol-4-yl)-3,4-dihydroisoquinolin-1(2H)-one] | – |
| 0.173 | COc1cc(CN2CCc3cc(F)c(CNC4=NCCN4)cc3C2=O)cc(OC)c1 [Example 133, 7-(((4,5-Dihydro-1H-imidazol-2-yl)amino)methyl)-2-(3,5-dimethoxybenzyl)-6-fluoro-3,4-dihydroisoquinolin-1(2H)-one] | – |
| < 0.05 | Cc1cncc([C@@H](C)N2CCc3c(cc(Cn4ccnc4C)cc3-c3cn(C)nc3C(F)(F)F)C2=O)c1 [Example 197, (R)-7-((2-Methyl-1H-imidazol-1-yl)methyl)-5-(1-methyl-3-(trifluoromethyl)-1H-pyrazol-4-yl)-2-(1-(5-methylpyridin-3-yl)ethyl)-3,4-dihydroisoquinolin-1(2H)-one] | – |
| 1.59 | Cc1nccn1Cc1cc2c(c(-c3cn(C)nc3C(F)(F)F)c1)CCN(Cc1ccccn1)C2=O [Example 180, 7-((2-Methyl-1H-imidazol-1-yl)methyl)-5-(1-methyl-3-(trifluoromethyl)-1H-pyrazol-4-yl)-2-(pyridin-2-ylmethyl)-3,4-dihydroisoquinolin-1(2H)-one] | – |
| 0.421 | Cc1nccn1Cc1cc2c(c(-c3cn(C)nc3C(F)(F)F)c1)CCN(Cc1cccc(C(F)(F)F)c1)C2=O [Example 221, 7-((2-Methyl-1H-imidazol-1-yl)methyl)-5-(1-methyl-3-(trifluoromethyl)-1H-pyrazol-4-yl)-2-(3-(trifluoromethyl)benzyl)-3,4-dihydroisoquinolin-1(2H)-one] | – |
| < 0.05 | Cc1cnc(Cl)c(CN2CCc3c(cc(Cn4ccnc4C)cc3-c3cn(C)nc3C(F)(F)F)C2=O)c1 [Example 223, 2-((2-Chloro-5-methylpyridin-3-yl)methyl)-7-((2-methyl-1H-imidazol-1-yl)methyl)-5-(1-methyl-3-(trifluoromethyl)-1H-pyrazol-4-yl)-3,4-dihydroisoquinolin-1(2H)-one] | – |
| > 0.938 | COc1ccnc(CN2CCc3c(cc(Cn4ccccc4=N)cc3-c3cn(C)nc3C)C2=O)c1 [Example 117, 5-(1,3-Dimethyl-1H-pyrazol-4-yl)-7-((2-iminopyridin-1(2H)-yl)methyl)-2-((4-methoxypyridin-2-yl)methyl)-3,4-dihydroisoquinolin-1(2H)-one] | – |
| > 0.938 | CCn1cc(-c2cc(Cn3cnn(C)c3=N)cc3c2CCN(Cc2cc(C)nn2C)C3=O)c(C(F)(F)F)n1 [Example 128, 2-((1,3-Dimethyl-1H-pyrazol-5-yl)methyl)-7-((5-imino-1-methyl-1,5-dihydro-4H-1,2,4-triazol-4-yl)methyl)-5-(1-ethyl-3-(trifluoromethyl)-1H-pyrazol-4-yl)-3,4-dihydroisoquinolin-1(2H)-one] | – |
| 0.129 | COc1ccnc(CN2CCc3c(cc(CN4CCCC4=N)cc3-c3ccc(F)cc3C)C2=O)c1 [Example 114, 5-(4-Fluoro-2-methylphenyl)-7-((2-iminopyrrolidin-1-yl)methyl)-2-((4-methoxypyridin-2-yl)methyl)-3,4-dihydroisoquinolin-1(2H)-one] | – |
| < 0.05 | CCn1cc(-c2cc(CN3CCSC3=N)cc3c2CCN([C@@H](C)c2cc(OC)ccn2)C3=O)c(C(F)(F)F)n1 [Example 151, (S)-5-(1-Ethyl-3-(trifluoromethyl)-1H-pyrazol-4-yl)-7-((2-iminothiazolidin-3-yl)methyl)-2-(1-(4-methoxypyridin-2-yl)ethyl)-3,4-dihydroisoquinolin-1(2H)-one] | – |
| 0.055 | COc1ccnc([C@H](C)N2CCc3c(cc(Cn4ccnc4C)cc3-c3ccncc3C(F)(F)F)C2=O)c1 [Example 248, (S)-2-(1-(4-Methoxypyridin-2-yl)ethyl)-7-((2-methyl-1H-imidazol-1-yl)methyl)-5-(3-(trifluoromethyl)pyridin-4-yl)-3,4-dihydroisoquinolin-1(2H)-one] | – |
